The values that follow are results of earlier work, collected in patent US5767071A, “Sevenmer cyclic peptide inhibitors of diseases involving αv β3” (IXSYS Incorporated, priority 1995, dated 1998).

The subject of data set [1] is chicken embryo tumor model.
A further data set has as its target integrin αv β3 (Homo sapiens, UniProt P05106+P06756). To be noted: binding and cell adhesion assays.

Sequence of integrin αv β3 (P06756 31-889 limits assumed): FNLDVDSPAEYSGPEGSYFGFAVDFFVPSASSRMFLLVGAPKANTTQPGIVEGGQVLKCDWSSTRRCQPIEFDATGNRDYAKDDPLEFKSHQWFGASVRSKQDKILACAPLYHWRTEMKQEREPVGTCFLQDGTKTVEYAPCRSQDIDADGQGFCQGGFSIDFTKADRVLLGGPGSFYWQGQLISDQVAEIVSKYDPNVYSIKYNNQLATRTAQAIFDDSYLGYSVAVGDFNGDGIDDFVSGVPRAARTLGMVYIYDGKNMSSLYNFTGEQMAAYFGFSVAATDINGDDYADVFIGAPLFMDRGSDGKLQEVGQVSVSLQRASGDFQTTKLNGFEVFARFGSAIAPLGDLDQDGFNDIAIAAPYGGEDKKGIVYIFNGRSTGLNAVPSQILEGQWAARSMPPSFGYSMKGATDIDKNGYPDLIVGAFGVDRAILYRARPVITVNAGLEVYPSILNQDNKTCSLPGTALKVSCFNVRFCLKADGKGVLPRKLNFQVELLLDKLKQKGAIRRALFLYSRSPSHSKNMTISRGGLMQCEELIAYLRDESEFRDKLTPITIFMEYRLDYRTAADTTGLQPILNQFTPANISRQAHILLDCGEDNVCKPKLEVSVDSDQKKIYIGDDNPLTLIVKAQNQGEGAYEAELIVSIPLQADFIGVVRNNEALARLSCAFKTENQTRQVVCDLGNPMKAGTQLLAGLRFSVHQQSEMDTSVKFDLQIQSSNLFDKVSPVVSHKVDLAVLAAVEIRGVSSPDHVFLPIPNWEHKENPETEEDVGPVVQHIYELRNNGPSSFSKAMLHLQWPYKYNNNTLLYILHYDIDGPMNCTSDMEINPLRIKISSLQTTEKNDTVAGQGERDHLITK
Sequence of integrin αv β3 (P06756 891-1048 limits assumed): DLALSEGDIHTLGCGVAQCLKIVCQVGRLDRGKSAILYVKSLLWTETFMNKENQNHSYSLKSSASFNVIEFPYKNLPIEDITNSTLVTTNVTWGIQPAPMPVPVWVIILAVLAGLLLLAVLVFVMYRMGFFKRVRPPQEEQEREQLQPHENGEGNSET
Sequence of integrin αv β3 (P05106 27-788): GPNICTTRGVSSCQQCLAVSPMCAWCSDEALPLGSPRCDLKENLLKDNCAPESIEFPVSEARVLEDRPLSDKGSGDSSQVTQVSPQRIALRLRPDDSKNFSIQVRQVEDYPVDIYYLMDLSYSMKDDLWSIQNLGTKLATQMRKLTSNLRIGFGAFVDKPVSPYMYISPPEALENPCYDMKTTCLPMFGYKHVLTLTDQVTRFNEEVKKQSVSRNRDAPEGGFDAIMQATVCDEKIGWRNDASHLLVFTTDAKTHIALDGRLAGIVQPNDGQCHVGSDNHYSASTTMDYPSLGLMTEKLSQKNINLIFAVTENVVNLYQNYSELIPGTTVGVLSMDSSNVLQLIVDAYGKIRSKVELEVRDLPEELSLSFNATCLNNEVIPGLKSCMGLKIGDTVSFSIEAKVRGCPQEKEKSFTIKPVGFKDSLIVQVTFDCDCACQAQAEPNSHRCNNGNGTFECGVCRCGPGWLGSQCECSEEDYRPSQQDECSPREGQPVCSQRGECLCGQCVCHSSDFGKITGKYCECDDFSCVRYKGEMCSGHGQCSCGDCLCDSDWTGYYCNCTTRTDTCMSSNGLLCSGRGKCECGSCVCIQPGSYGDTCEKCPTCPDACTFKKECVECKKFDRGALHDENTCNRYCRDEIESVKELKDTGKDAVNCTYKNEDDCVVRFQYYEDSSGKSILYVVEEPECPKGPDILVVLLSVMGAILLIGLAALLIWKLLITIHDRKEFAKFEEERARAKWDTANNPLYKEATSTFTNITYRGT

Turning to `CC(C)[C@@H]1NC(=O)[C@@H](Cc2ccccc2)NC(=O)[C@H](CC(=O)O)NC(=O)CNC(=O)[C@H](CCCN=C(N)N)NC1=O` [cyclo-RGDfv], in data set [1], the “inhibition of angiogenesis / neovascularization” value is “inhibit the neovascularization process”. “ACPSRLDSPCG [RLD peptide from a literature phage library (Koivunen et al.)]”: in the data set with integrin αv β3, the “activity compared with an RGD peptide” value is 100-1000 fold lower and the “selectivity for the integrin αv β3” value is reported as “only partially selective”. Take Gly-Arg-Gly-Asp-Ser (GRGDS): the “inhibition of angiogenesis in vitro” value in the data set on angiogenesis is “inhibits angiogenesis in vitro”.
